{"source": "paper PMC5433425", "about": "(PeerJ, 2017)", "key": {"[1]": {"system": "human monocyte-derived macrophages", "test": "Cytotoxicity, AlamarBlue method", "assay_type": "cell-based", "conditions": "for AlamarBlue fluorescence 530/25,590/35 (raw well reading): 72 h", "procedure": "(§1) The blood was collected from healthy donors and the peripheral blood mononuclear cells were isolated by Ficoll-Paque Plus (GE Healthcare, Freiburg, Germany) density gradient centrifugation as previously described ([Machado et al., 2016]). […] Fresh medium was added at day 4 post isolation. The effect of the compounds on human monocyte-derived macrophages was evaluated using the AlamarBlue method (Molecular Probes, Life Technologies) ([O’Brien et al., 2000]), and by measuring the release of the lactate dehydrogenase (LDH) into the culture supernatants using the Pierce LDH Cytotoxicity Assay (ThermoFisher Scientific, Waltham, MA, USA) ([Chan, Moriwaki & Rosa, 2013]) according to the manufacturer’s instructions. Briefly, 5 × 10^4 cells were seeded in 96-well microplates treated with the compounds, and incubated at 37 °C with 5% CO2. After 72 h of treatment, the cell viability was assessed. For the AlamarBlue method, the dye was added to each well to a final concentration of 10% and incubated overnight at 37 °C and 5% CO2. The fluorescence was measured with a 540/35 excitation filter and a 590/20 emission filter in a Synergy HT multi-mode microplate reader. The release of LDH from damaged cells into culture supernatants, as an indicator of cytotoxicity, was measured in serum-free medium. Here the amount of enzyme activity correlates to the number of damaged cells. The specific lysis was calculated as follows: (treated cells—spontaneous LDH release)/ (maximum LDH release—spontaneous LDH release) ×100."}, "[2]": {"system": "human monocyte-derived macrophages", "test": "Cytotoxicity, LDH release", "assay_type": "cell-based", "conditions": "5 µM; 3 days", "procedure": "as §1"}, "[3]": {"system": "Enterobacter aerogenes ATCC13048", "test": "MIC, antibacterial specificity", "assay_type": "cell-based"}, "[4]": {"system": "Salmonella enterica serovar Enteritidis NCTC13349", "test": "MIC, antibacterial specificity", "assay_type": "cell-based"}, "[5]": {"system": "Klebsiella pneumoniae FF4891", "test": "MIC, antibacterial specificity", "assay_type": "cell-based"}, "[6]": {"system": "Staphylococcus aureus ATCC25923", "test": "MIC, antibacterial specificity", "assay_type": "cell-based"}, "Mycobacterium avium 104": {"system": "Mycobacterium avium 104", "test": "MIC, antibacterial specificity", "assay_type": "cell-based"}, "[7]": {"system": "Mycobacterium tuberculosis H37Rv ATCC27294T", "test": "MIC, antibacterial specificity", "assay_type": "cell-based"}, "E. coli AG100A": {"system": "E. coli AG100A", "test": "EtBr efflux by real-time fluorometry", "conditions": "20 µM, without glucose"}, "[8]": {"conditions": "three days of exposure, AlamarBlue"}}, "note": "“And” between values parts separate entries of the source, which are not always exact repeats. Identical values can stand only once.", "data": [{"smiles": "CCCOc1ccc(-c2cc(OCCN3CCNCC3)c3ccccc3n2)cc1", "note": "[PQQ4R, 4-(2-(piperazin-1-yl)ethoxy)-2-(4-propoxyphenyl) quinolone]", "values": [{"measurement": "AlamarBlue fluorescence 530/25,590/35 (raw well reading)", "setting": "[1]; 0.625 uM", "value": "4943 and 4771 and 4650"}, {"measurement": "AlamarBlue fluorescence 530/25,590/35 (raw well reading)", "setting": "[1]; 1.25 uM", "value": "4755 and 4559 and 4604"}, {"measurement": "AlamarBlue fluorescence 530/25,590/35 (raw well reading)", "setting": "[1]; 5 uM", "value": "468 and 451 and 495"}, {"measurement": "AlamarBlue fluorescence 530/25,590/35 (raw well reading)", "setting": "[1]; 10 uM", "value": "253 and 248"}, {"measurement": "AlamarBlue fluorescence 530/25,590/35 (raw well reading)", "setting": "[1]; 20 uM", "value": "256 and 246 and 248"}, {"measurement": "AlamarBlue fluorescence 530/25,590/35 (raw well reading)", "setting": "[1]; 40 uM", "value": "254 and 251 and 248"}, {"measurement": "AlamarBlue fluorescence 530/25,590/35 (raw well reading)", "setting": "[1]; 80 uM", "value": "254 and 250 and 251"}, {"measurement": "AlamarBlue fluorescence 530/25,590/35 (raw well reading)", "setting": "[1]; 160 uM", "value": "259 and 263 and 255"}, {"measurement": "CC10", "setting": "[1]; [8]", "value": 9.21, "unit": "µM"}, {"measurement": "CC90", "setting": "[1]; [8]", "value": 12.7, "unit": "µM"}, {"measurement": "increase in LDH release", "setting": "[2]", "value": 52.45, "unit": "%"}, {"measurement": "MIC", "setting": "[3]", "value": ">256", "unit": "µg/mL"}, {"measurement": "MIC", "setting": "[4]", "value": 256, "unit": "µg/mL"}, {"measurement": "MIC", "setting": "[5]", "value": ">256", "unit": "µg/mL"}, {"measurement": "MIC", "setting": "[6]", "value": 50, "unit": "µg/mL"}, {"measurement": "MIC", "setting": "Mycobacterium avium 104", "value": 32, "unit": "µg/mL"}, {"measurement": "MIC", "setting": "[7]", "value": 32, "unit": "µg/mL"}, {"measurement": "EtBr fluorescence (Channel Cycling A.530/585hp)", "setting": "E. coli AG100A; cycle 1", "value": 5.807}, {"measurement": "EtBr fluorescence (Channel Cycling A.530/585hp)", "setting": "E. coli AG100A; cycle 2", "value": 5.662}, {"measurement": "EtBr fluorescence (Channel Cycling A.530/585hp)", "setting": "E. coli AG100A; cycle 3", "value": 5.478}, {"measurement": "EtBr fluorescence (Channel Cycling A.530/585hp)", "setting": "E. coli AG100A; cycle 4", "value": 5.356}, {"measurement": "EtBr fluorescence (Channel Cycling A.530/585hp)", "setting": "E. coli AG100A; cycle 5", "value": 5.183}, {"measurement": "EtBr fluorescence (Channel Cycling A.530/585hp)", "setting": "E. coli AG100A; cycle 6", "value": 5.1485}, {"measurement": "EtBr fluorescence (Channel Cycling A.530/585hp)", "setting": "E. coli AG100A; cycle 7", "value": 5.025}, {"measurement": "EtBr fluorescence (Channel Cycling A.530/585hp)", "setting": "E. coli AG100A; cycle 8", "value": 4.924}, {"measurement": "EtBr fluorescence (Channel Cycling A.530/585hp)", "setting": "E. coli AG100A; cycle 9", "value": 4.937}, {"measurement": "EtBr fluorescence (Channel Cycling A.530/585hp)", "setting": "E. coli AG100A; cycle 10", "value": 4.811}, {"measurement": "EtBr fluorescence (Channel Cycling A.530/585hp)", "setting": "E. coli AG100A; cycle 11", "value": 4.773}, {"measurement": "EtBr fluorescence (Channel Cycling A.530/585hp)", "setting": "E. coli AG100A; cycle 12", "value": 4.602}, {"measurement": "EtBr fluorescence (Channel Cycling A.530/585hp)", "setting": "E. coli AG100A; cycle 13", "value": 4.634}, {"measurement": "EtBr fluorescence (Channel Cycling A.530/585hp)", "setting": "E. coli AG100A; cycle 14", "value": 4.745}, {"measurement": "EtBr fluorescence (Channel Cycling A.530/585hp)", "setting": "E. coli AG100A; cycle 15", "value": 4.684}, {"measurement": "EtBr fluorescence (Channel Cycling A.530/585hp)", "setting": "E. coli AG100A; cycle 16", "value": 4.629}, {"measurement": "EtBr fluorescence (Channel Cycling A.530/585hp)", "setting": "E. coli AG100A; cycle 17", "value": 4.631}, {"measurement": "EtBr fluorescence (Channel Cycling A.530/585hp)", "setting": "E. coli AG100A; cycle 18", "value": 4.599}, {"measurement": "EtBr fluorescence (Channel Cycling A.530/585hp)", "setting": "E. coli AG100A; cycle 19", "value": 4.579}, {"measurement": "EtBr fluorescence (Channel Cycling A.530/585hp)", "setting": "E. coli AG100A; cycle 20", "value": 4.522}, {"measurement": "EtBr fluorescence (Channel Cycling A.530/585hp)", "setting": "E. coli AG100A; cycle 21", "value": 4.504}, {"measurement": "EtBr fluorescence (Channel Cycling A.530/585hp)", "setting": "E. coli AG100A; cycle 22", "value": 4.567}, {"measurement": "EtBr fluorescence (Channel Cycling A.530/585hp)", "setting": "E. coli AG100A; cycle 23", "value": 4.591}, {"measurement": "EtBr fluorescence (Channel Cycling A.530/585hp)", "setting": "E. coli AG100A; cycle 24", "value": 4.544}, {"measurement": "EtBr fluorescence (Channel Cycling A.530/585hp)", "setting": "E. coli AG100A; cycle 25", "value": 4.652}, {"measurement": "EtBr fluorescence (Channel Cycling A.530/585hp)", "setting": "E. coli AG100A; cycle 26", "value": 4.627}, {"measurement": "EtBr fluorescence (Channel Cycling A.530/585hp)", "setting": "E. coli AG100A; cycle 27", "value": 4.498}, {"measurement": "EtBr fluorescence (Channel Cycling A.530/585hp)", "setting": "E. coli AG100A; cycle 28", "value": 4.577}, {"measurement": "EtBr fluorescence (Channel Cycling A.530/585hp)", "setting": "E. coli AG100A; cycle 29", "value": 4.648}, {"measurement": "EtBr fluorescence (Channel Cycling A.530/585hp)", "setting": "E. coli AG100A; cycle 30", "value": 4.639}, {"measurement": "EtBr fluorescence (Channel Cycling A.530/585hp)", "setting": "E. coli AG100A; cycle 31", "value": 4.704}, {"measurement": "EtBr fluorescence (Channel Cycling A.530/585hp)", "setting": "E. coli AG100A; cycle 32", "value": 4.705}, {"measurement": "EtBr fluorescence (Channel Cycling A.530/585hp)", "setting": "E. coli AG100A; cycle 33", "value": 4.739}, {"measurement": "EtBr fluorescence (Channel Cycling A.530/585hp)", "setting": "E. coli AG100A; cycle 34", "value": 4.713}, {"measurement": "EtBr fluorescence (Channel Cycling A.530/585hp)", "setting": "E. coli AG100A; cycle 35", "value": 4.766}, {"measurement": "EtBr fluorescence (Channel Cycling A.530/585hp)", "setting": "E. coli AG100A; cycle 36", "value": 4.793}, {"measurement": "EtBr fluorescence (Channel Cycling A.530/585hp)", "setting": "E. coli AG100A; cycle 37", "value": 4.818}, {"measurement": "EtBr fluorescence (Channel Cycling A.530/585hp)", "setting": "E. coli AG100A; cycle 38", "value": 4.849}, {"measurement": "EtBr fluorescence (Channel Cycling A.530/585hp)", "setting": "E. coli AG100A; cycle 39", "value": 4.826}, {"measurement": "EtBr fluorescence (Channel Cycling A.530/585hp)", "setting": "E. coli AG100A; cycle 40", "value": 4.8647}, {"measurement": "EtBr fluorescence (Channel Cycling A.530/585hp)", "setting": "E. coli AG100A; cycle 41", "value": 4.7891}, {"measurement": "EtBr fluorescence (Channel Cycling A.530/585hp)", "setting": "E. coli AG100A; cycle 42", "value": 4.94}, {"measurement": "EtBr fluorescence (Channel Cycling A.530/585hp)", "setting": "E. coli AG100A; cycle 43", "value": 5.003}, {"measurement": "EtBr fluorescence (Channel Cycling A.530/585hp)", "setting": "E. coli AG100A; cycle 44", "value": 5}, {"measurement": "EtBr fluorescence (Channel Cycling A.530/585hp)", "setting": "E. coli AG100A; cycle 45", "value": 5.002}, {"measurement": "EtBr fluorescence (Channel Cycling A.530/585hp)", "setting": "E. coli AG100A; cycle 46", "value": 5.099}, {"measurement": "EtBr fluorescence (Channel Cycling A.530/585hp)", "setting": "E. coli AG100A; cycle 47", "value": 5.05}, {"measurement": "EtBr fluorescence (Channel Cycling A.530/585hp)", "setting": "E. coli AG100A; cycle 48", "value": 5.085}, {"measurement": "EtBr fluorescence (Channel Cycling A.530/585hp)", "setting": "E. coli AG100A; cycle 49", "value": 5.044}, {"measurement": "EtBr fluorescence (Channel Cycling A.530/585hp)", "setting": "E. coli AG100A; cycle 50", "value": 5.1253}, {"measurement": "EtBr fluorescence (Channel Cycling A.530/585hp)", "setting": "E. coli AG100A; cycle 51", "value": 5.103}, {"measurement": "EtBr fluorescence (Channel Cycling A.530/585hp)", "setting": "E. coli AG100A; cycle 52", "value": 5.071}, {"measurement": "EtBr fluorescence (Channel Cycling A.530/585hp)", "setting": "E. coli AG100A; cycle 53", "value": 5.2927}, {"measurement": "EtBr fluorescence (Channel Cycling A.530/585hp)", "setting": "E. coli AG100A; cycle 54", "value": 5.227}, {"measurement": "EtBr fluorescence (Channel Cycling A.530/585hp)", "setting": "E. coli AG100A; cycle 55", "value": 5.134}, {"measurement": "EtBr fluorescence (Channel Cycling A.530/585hp)", "setting": "E. coli AG100A; cycle 56", "value": 5.328}, {"measurement": "EtBr fluorescence (Channel Cycling A.530/585hp)", "setting": "E. coli AG100A; cycle 57", "value": 5.315}, {"measurement": "EtBr fluorescence (Channel Cycling A.530/585hp)", "setting": "E. coli AG100A; cycle 58", "value": 5.365}, {"measurement": "EtBr fluorescence (Channel Cycling A.530/585hp)", "setting": "E. coli AG100A; cycle 59", "value": 5.339}, {"measurement": "EtBr fluorescence (Channel Cycling A.530/585hp)", "setting": "E. coli AG100A; cycle 60", "value": 5.32}, {"measurement": "EtBr fluorescence (Channel Cycling A.530/585hp)", "setting": "E. coli AG100A; cycle 61", "value": 5.417}]}]}
